From PMC6030159 (Scientific Reports, 2018)
“Also recorded” adds a separate entry of the source.

How the values were obtained:
[1] = molecular target: MYC; parameters: method as in PMID 24859015; details: read-out: KD for MYC by SPR; cited from earlier work
[2] = system: MYCN-amplified neuroblastoma cells (IMR-32, Kelly, SK-N-DZ); assay: Resazurin growth assay, MYCN-amplified neuroblastoma cell lines; format: cell-based, human; details: MYCMI-6 6.25 μM, MYCMI-11 and MYCMI-14 25 μM, 10058-F4 64 μM, 48 hours
Description: HEK293A, MCF7, MDA-MB231, SK-N-F1, SK-N-RA, SK-N-AS, COS-7, HeLa, BJ cells, and Rat1 fibroblasts TGR-1 (wt), HO15.19 (MYC knockout) and HOmyc3 (MYC reconstituted HO15.19) were maintained in DMEM. The neuroblastoma cell lines Kelly, IMR-32 and SK-N-DZ, and the Burkitt’s lymphoma cell lines Mutu, Daudi and ST486 were kept in RPMI. SK-N-BE(2) cells were maintained in a 1:1 mixture of EMEM and F12 media, supplemented with 1% non-essential amino acid solution (NEAA) and 0.5% Glutamine. U2OS-MYC-ER cell lines were cultured in phenol-red free DMEM and treated with 100 nM 4-hydroxytamoxifen (HOT) (Sigma-Aldrich) to activate MYC-ER. IMR-90 was maintained in MEM. All media were supplemented with 10% FBS and 1% penicillin and streptomycin and kept at 37 °C and 5% CO2. All cell lines were mycoplasma free. Cell proliferation assays were performed as described in Supplementary Information. […]
Cell proliferation assays. Cell growth and viability was estimated in triplicates with WST-1
(Roche) or Resazurin sodium salt (Sigma-Aldrich) assays in medium at 37°C and 5% CO 2 for
2 hours after which absorbance or fluorescence, respectively, was measured with an Omega
Fluostar (BMG Labtech) in a 96 well plate format. […]

[3] = system: tumor cell growth in vivo; details: cited from earlier work
[4] = system: MYC-family protein levels; parameters: method as in PMID 28976731, PMID 24859015, PMID 23733953; details: cited from earlier work
[5] = system: recombinant MYC:MAX:DNA; parameters: method as in PMID 28976731, PMID 25114221; details: fluorescence polarization; read-out: IC50, MYC:MAX:DNA interaction; cited from earlier work
[6] = molecular target: T1, MYC bHLHZip (Homo sapiens, UniProt P01106); assay: SPR direct binding to immobilized MYC; details: up to 8 μM
T1 construct: 6xHis (N); made in house; host or cells: E. coli BL21 (DE3), pET28a; purified in denaturing conditions
T1 sequence (P01106 367-447 limits assumed): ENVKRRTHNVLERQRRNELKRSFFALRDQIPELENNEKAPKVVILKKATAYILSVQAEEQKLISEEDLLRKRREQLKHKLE
Experimental: Further, MYCMI-6 binding to MAX, MXD1 (MAD1) (Figs 4C and S5C and D), p53 (Fig. 4D), BSA (Suppl. Fig. S5E) and YFP (data not shown) were negligible. Binding to BCL-XL was only 10% of the theoretical maximum at 2 μM MYCMI-6 (Suppl. Fig. S5F).
The MYC SPR assay was carried out as described above with MYCbHLHZip immobilized to a level of 800–1000 RU. For kinetic binding experiments, a Langmuir 1:1 binding event was applied using the Biacore T200 Evaluation Software 2.0 (GE Healthcare) to determine association (ka) and dissociation (kd) constants of the compound and to calculate affinity (KD) by the formula; KD = kd/ka. Binding responses from equilibrium binding experiments were plotted against compound concentration and KD values were determined at 50% of the theoretical Rmax with the formula Rmax = (MW analyte/MW ligand) × immobilized ligand level on the chip (RU) × stoichiometry (1:1). Same coupling method described above was used to immobilize the control proteins. MAX was immobilized to approximately 2000 RU, MAD to 600 RU, BSA to 1000 RU, p53 to 3000 RU and BCL-XL, to 500 RU.

[7] = system: MAX:MAX:DNA; parameters: method as in PMID 28976731, PMID 25114221; details: fluorescence polarization; read-out: IC50, MAX:MAX:DNA interaction; cited from earlier work
[8] = system: MAX; parameters: method as in PMID 25114221; details: cited from earlier work
[9] = molecular target: T2, MYCbHLHZip:MAXbHLHZip (Homo sapiens, UniProt P01106); assay: SPR MYC:MAX heterodimer formation assay; format: binding; details: KJ-Pyr-9 up to 10 μM
T2 construct: 6xHis (N); made in house; host or cells: E. coli BL21 (DE3), pET28a
T2 sequence (P01106 367-447 limits assumed): as above
Experimental: The SPR method is a highly sensitive assay to determine the affinity between protein and ligand and to measure the kinetics of the interaction. In the SPR MYC:MAX interaction assay, MAXbHLHZip was covalently attached onto a sensor chip and MYCbHLHZip pre-mixed with compound was injected over the surface and thereafter allowed to dissociate.
The SPR experiments were performed at 25 °C using a Biacore T200 (GE Healthcare) instrument kindly provided by SciLifeLab Solna. An amino coupling procedure was used to immobilize protein on a CM5 sensor chip (GE Healthcare). Sensorgrams were generated by subtraction of the reference (blank immobilized) surface. All details will be described in Castell et al. (manuscript in preparation). In general, for the MYC:MAX interaction assay, 200–500 RU of MAXbHLHZip was immobilized and 100 nM MYCbHLHZip pre-incubated with compound in PBS supplemented with 0.05% Tween-20 and 1% DMSO was injected with a flow rate of 30 µl/min and allowed to dissociate. MAX was regenerated by injection of PBS buffer supplemented with Urea.

[10] = system: T3, MYC:MAX; assay: Gaussia luciferase complementation (GLuc) MYC:MAX; format: cell-based, human; details: 25 μM, 17 hours, HEK293 cells
T3 construct: fused to full length MYC (MYC-GLuc-C) and MAX (MAX-GLuc-N), respectively; expressed in transfected cells; host or cells: HEK293
Experimental: The protein fragment complementation assay using the Gaussia luciferase has been described. 0.2–0.4 μg of each GLuc-construct (see Supplementary Information) together with 0.05–0.2 μg pCMV-Luc (Firefly luciferase) were transiently transfected into HEK293 or COS-7 cells in 6-well plates. 24 hours later cells were treated with compound (10–25 μM) or DMSO. After another 17 hours, the cells were harvested and lyzed in passive lysis buffer (Promega) supplemented with complete protease inhibitor (Roche). After 60 min incubation at room temperature 20 μM D-luciferin was added (substrate of Firefly luciferase) and luminescence was measured in a Lumat LB9501 (Berthold) or OmegaFluostar (BMG Labtech) luminometer. Directly after, Gaussia luciferase substrate Coelenterazine (Promega) was added to a final concentration of 20 μM in a mixture with “Stop n’ Glow” (Promega) and the luciferase activity was measured. The ratio between Gaussia and Firefly luciferase values were calculated and normalized to DMSO-treated control cells.

[11] = system: endogenous MYC protein; assay: Western blot of endogenous MYC in HeLa cells; format: cell-based; details: 10 μM, 24 hours
Experimental: These assays were performed essentially as described in[67],[68]. For further information on immunohistochemistry, and on primers and antibodies, see Supplementary Information.

CCc1ccc(/C=C2/SC(=S)NC2=O)cc1 [10058-F4]
Kd [1]: ~40 µM | growth of MYCN-amplified versus MYCN-non-amplified neuroblastoma cell lines [2]: reduced growth of the MYCN-amplified cell lines significantly stronger than the MYCN-non-amplified cell lines | tumor cell growth in vivo, mouse tumor models [3]: Inhibition of tumor cell growth in vivo | effect on MYC-family protein levels [4]: down-regulate

O=[N+]([O-])c1ccc(Nc2ccccc2-c2ccccc2)c2nonc12 [10074-G5]
Kd [1]: ~32 µM | effect on MYC-family protein levels [4]: down-regulate

NC(=O)c1ccc(-c2cc(-c3ccc([N+](=O)[O-])cc3)nc(-c3ccco3)c2)cc1 [KJ-Pyr-9]
tumor cell growth in vivo, mouse tumor models [3]: Inhibition of tumor cell growth in vivo | IC50 [5]: ~10 µM | binding to immobilized MYC (SPR), in words [6]: not detect any binding | IC50 [7]: ~30 µM | binding to MAX, BSI [8]: not MAX | effect on MYC:MAX formation (SPR), in words [9]: no effect; also recorded: not affect the MYC:MAX interaction

CCN(CC)CC[n+]1ccc2c(C)c3[nH]c4ccccc4c3c(C)c2c1 [MYCMI-7]
MYC:MAX GLuc activity [10]: most potent | effect on endogenous MYC protein levels (western blot) [11]: reduced MYC protein expression
